Reference: patent publication US20060211690A1, “Microglia inhibitors for interrupting interleukin 12 and IFNgamma-mediated immune reactions” (Schering Aktiengesellschaft, priority 2002, published 2006)

Tests used:
IFNγ = assay: Inhibition of the IFNγ production of peripheral mononuclear blood cells (phytohemagglutinin-stimulated); format: cell-based; settings: human peripheral mononuclear blood cells, 5 μg/mL phytohemagglutinin, 48 hours; read-out: Inhibition of the IFNγ Secretion (IC50)
Experimental: To visualize the effect of the substances on T-cell activation, for example, the measurement of the IFNγ-secretion can be used.
To isolate peripheral mononuclear cells, human whole blood was used (drawing of blood via Na-citrate S-monovettes “Coagulation 9 NC/10 ml”/Sarstedt). The build-up of the blood cells was accomplished with the aid of density gradient centrifuging: For this purpose, 15 ml of Histopaque 1077 (Sigma, Cat. No. H8880) in LEUCOSEP tubes (Greiner, Cat. No. 227290) is introduced and centrifuged for 30 seconds at 1000 g. Then, 15 ml of whole blood is added and centrifuged for 10 minutes at 1000 g. Finally, the upper plasma layer is pipetted off and the subjacent cell layer (peripheral mononuclear blood cells) is transferred in 15 ml sample tubes (Falcon) and then […] several times with 10 ml of HBSS (HANKS Balanced Solution (without Mg2+ and Ca2+), Cat. No. 14175-53). […]
Then the medium was harvested, and the amount of IFNγ was determined quantitatively. The amount of IFNγ was determined with the aid of the ORIGEN technology (IGEN International, Inc., Gaithersburg, Md.). […]

TNFα [1] = assay: Inhibition of the TNFα production in LPS-stimulated THP-1 cells; format: cell-based; settings: Homo sapiens, 0.1 μg/ml LPS overnight, read-out: Inhibition of the TNFα Secretion (IC50)
Experimental: (§1) The inhibition of the cytokine production can be visualized, for example, by measuring TNFα and interleukin 12 in lipopolysaccharide (LPS)-stimulated THP-1 cells.
(§2) For this purpose, 2.5×10^5 THP-1 cells (American Type Culture Company, Rockville, Md.)/ml of RPMI 1640 medium (Life Technologies)/10% FCS (Life Technologies, Cat. No. 10270-106) are grown on 96-hole flat-bottomed cell culture plates (TPP, Product No.9296) (100 μl/hole). The compounds according to the invention are added at various concentrations and pre-incubated for 30 minutes. The pre-dilution of the test substances was performed in the incubation medium. The addition of the test substances is carried out as a 2× concentrated substance solution (100 μl/hole). The stimulation of the cells was carried out overnight at 37° C with 0.1 μg/ml of LPS (Sigma L2630, of E. Coli Serotype 011 1.B4). Then, the medium was harvested, and the amount of TNFα or the amount of interleukin 12 was quantitatively determined. To measure the TNFα, a commercially available TNFα kit of the CIS Bio International Company was used (Product No. 62TNFPEB). The amount of interleukin 12 was implemented with the aid of the ORIGEN technology (IGEN International, Inc., Gaithersburg, Md.). The calculated IC50 value corresponds to the concentration of test substance that is required to reach a 50% inhibition of the maximum TNFα or interleukin 12 production. […]

IL-10 = assay: Induction of IL-10 production of peripheral mononuclear blood cells; format: cell-based, human; settings: 24 hours; for EC50: Homo sapiens, PHA, read-out: Induction of the IL-10 Secretion after PHA Stimulation EC50
Experimental: The induction of IL-10 production is visualized by, for example, measuring IL-10 in peripheral mononuclear blood cells that are stimulated in phytohemagglutinin (PHA) or lipopolysaccharide (LPS).
To isolate peripheral mononuclear blood cells, human whole blood was used (drawing of blood via Na-Citrate S-monovettes “Coagulation 9 NC/10 ml”/Sarstedt). The build-up of the lymphocytes and monocytes was accomplished with the aid of the density gradient centrifuging: For this purpose, 15 ml of Histopaque-1077 (Sigma, Cat. No. H8880) in 50 ml LEUCOSEP tubes (Greiner, Cat. No. 227290) is introduced and forced downward by centrifuging for 30 seconds at 250 g by the frits that are contained in the tubes. Then, 20 ml of whole blood is added and centrifuged for 15 minutes at 800 g and at room temperature. After centrifuging, the supernatant (plasma and thrombocytes) is pipetted off and discarded, and the subjacent cell layer (lymphocytes and monocytes) in 50 ml centrifuging tubes (Falcon) is transferred and then washed 3× in culture medium VLE RPMI 1640 (Seromed, No. FG1415) (centrifuging in each case for 10 minutes at 250 g, room temperature). Finally, the cell pellet is resuspended in culture medium VLE RPMI 1640 (Seromed, No. FG1415), 10% FCS (Life Technologies, Cat. No. 16000-044, low endotoxin, heat-inactivated for 1 hour, 56° C.), 50 μg/ml of penicillin-streptomycin solution (Life Technologies, Cat. No. 15140-106) and set at 3×10^6 cells/ml after cell counting by means of trypan blue staining. In each case, 100 μl of cell suspension solution was dispersed on 96-hole flat-bottomed cell culture plates (Costar, Product No. 3599). In each case, 100 μl of 3×-concentrated stimulation solution (3 μg/ml of LPS of E. coli Serotype 0127:B8; Sigma, Cat. No. L-4516 or 300 μg/ml of PHA-L, Biochrom KG, Cat. No. M5030) was added to it. The substances according to the invention were added at various concentrations as 3×-concentrated substance solution (100 μl/well). The stimulation of the cells was carried out at 37° C. and 5% CO2 over a period of 24 hours. Then, the cell culture supernatant was harvested, and IL-10 was determined quantitatively. The IL-10 concentration was determined by means of a commercially available ELISA Kit of the BioSource International Company (human IL-10, Cat. No. KHC0101C). The calculated EC50 value corresponds to the concentration of test substance that is required to increase the IL-10 secretion by 50% of the maximum increase.

microglia = assay: Inhibition of the microglia activation; format: cell-based
Text: Compounds that with stimulation with the Aβ-peptide achieve an inhibition of the microglia activity of at least 20% and an inhibition of the cytokine activity of at least 30% are suitable, according to the invention, as microglia inhibitors. The biological properties of the microglia inhibitors can be shown according to the methods that are known to one skilled in the art, for example with the aid of the testing methods that are described below and in WO 01/51473.

IL-12 HD p70 = assay: Inhibition of IL-12 HD p70 production of peripheral mononuclear blood cells stimulated with LPS and IFNγ; format: cell-based, human; settings: 24 hours; for IC50: Homo sapiens, read-out: Inhibition of IL-12HD Secretion after LPS & IFNg Stimulation IC50
Experimental: (§3) The inhibition of the TNFα and IL-12 HD p70 production is visualized by, for example, measuring TNFα and IL-12 HD p70 in peripheral mononuclear blood cells that are stimulated with lipopolysaccharide (LPS) and interferon gamma (IFNγ).
(§4) To isolate peripheral mononuclear blood cells, human whole blood was used (drawing of blood via Na-Citrate S-monovettes “Coagulation 9 NC/10 ml”/Sarstedt). The build-up of the lymphocytes and monocytes was accomplished with the aid of the density gradient centrifuging: For this purpose, 15 ml of Histopaque-1077 (Sigma, Cat. No. H8880) is introduced into 50 ml LEUCOSEP tubes (Greiner, Cat. No. 227290) and forced downward by centrifuging for 30 seconds at 250 g by the frits that are contained in the tubes. Then, 20 ml of whole blood is added and centrifuged for 15 minutes at 800 g and at room temperature. After centrifuging, the supernatant (plasma and thrombocytes) is pipetted off and discarded, and the subjacent cell layer (lymphocytes and monocytes) is transferred into 50 ml centrifuging tubes (Falcon) and then washed 3× in culture medium VLE RPMI 1640 (Seromed, No. FG1415) (centrifuging in each case for 10 minutes at 250 g, room temperature). Finally, the cell pellet is resuspended in culture medium VLE RPMI 1640 (Seromed, No. FG1415), 10% FCS (Life Technologies, Cat. No. 16000-044, low endotoxin, heat-inactivated for 1 hour, 56° C.), and 50 μg/ml of penicillin-streptomycin solution (Life Technologies, Cat. No.15140-106) and set at 3×10^6 cells/ml after cell counting by means of trypan blue staining. In each case, 100 μl of cell suspension solution was dispersed on 96-hole flat-bottomed cell culture plates (Costar, Product No. 3599). In each case, 100 μl of 3×-concentrated stimulation solution (3 μg/ml of LPS of E. coli Serotype 0127:B8; Sigma, Cat. No. L-4516 and 300 ng/ml of IFNγ 1b, Imukin, Boehringer Ingelheim) was added to it. The substances according to the invention were added at various concentrations as 3×-concentrated substance solution (100 μl/well). The stimulation of the cells was carried out at 37° C. and 5% CO2 over a period of 24 hours. Then, the cell culture supernatant was harvested, and the concentrations of TNFα and IL-12 HD p70 were determined by means of commercially available ELISA Kits of the BioSource International Company (TNF-α EASIA, Cat. No. KAC 1752) and R & D Systems (Quantikine1υ HS IL-12, Cat. No. HS 120).
(§5) The calculated IC50 value corresponds to the concentration of test substance that is required to reach a 50% inhibition of the maximum TNFα- or interleukin 12 HD p70 production.

TNFα [2] = assay: Inhibition of TNFα production of peripheral mononuclear blood cells stimulated with LPS and IFNγ; format: cell-based, human; settings: 24 hours; for IC50: Homo sapiens, read-out: Inhibition of TNF-alpha Secretion after LPS & IFNg Stimulation IC50
Experimental: as §3, §4, §5

interleukin 12 = assay: Inhibition of the IL 12 production in LPS-stimulated THP-1 cells; format: cell-based; settings: Homo sapiens, 0.1 μg/ml LPS overnight, read-out: Inhibition of the IL 12 Secretion (IC50)
Experimental: as §1, §2

## Cc1ccc(-n2c(-c3ccccc3)nc3ccc(OCCCCCC(=O)OC(C)C)cc32)cc1 [Substance 1, 6-[[1-(4-Methylphenyl)-2-phenyl-1H-benzimidazol-6-yl]oxy]hexanoic acid-isopropyl ester]
IFNγ
  IC50: 1300 nM
TNFα [1]
  IC50: 3000 nM
IL-10
  Induction of the IL-10 Secretion after PHA Stimulation Effectiveness: 245%
  EC50: > 1000 nM
microglia
  IC50: 750 nM
IL-12 HD p70
  Inhibition of IL-12HD Secretion after LPS & IFNg Stimulation Effectiveness: 81%
  IC50: 92 nM
TNFα [2]
  Inhibition of TNF-alpha Secretion after LPS & IFNg Stimulation Effectiveness: 65%
  IC50: 650 nM
Interleukin 12
  IC50: 2200 nM

## Cc1ccc(-n2c(-c3ccccc3)nc3ccc(OCCCCCC(=O)O)cc32)cc1 [Substance 2, 6-[[1-(4-Methylphenyl)-2-phenyl-1H-benzimidazol-6-yl]oxy]hexanoic acid]
IFNγ
  IC50: 110 nM
TNFα [1]
  IC50: 150 nM
IL-10
  Induction of the IL-10 Secretion after PHA Stimulation Effectiveness: 283%
  EC50: 180 nM
microglia
  IC50: 160 nM
IL-12 HD p70
  Inhibition of IL-12HD Secretion after LPS & IFNg Stimulation Effectiveness: 93%
  IC50: 30 nM
TNFα [2]
  Inhibition of TNF-alpha Secretion after LPS & IFNg Stimulation Effectiveness: 83%
  IC50: 120 nM
Interleukin 12
  IC50: < 300 nM
